Here are results for 20 compounds from ChEMBL document CHEMBL4400520, “Benzofuran-isatin-imine hybrids tethered via different length alkyl linkers: Design, synthesis and in vitro evaluation of anti-tubercular and anti-bacterial activities as well as cytotoxicity” (Eur J Med Chem, 2019).

In brackets after ≈: the same amount, converted by molar mass. Some results are limits rather than exact numbers.

What all share (type): functional
Assay [1] has as its system Mycobacterium tuberculosis. Nature of the assay: Antitubercular activity against multidrug resistant Mycobacterium tuberculosis isolate 2.
Assay [2] has as its system Mycobacterium tuberculosis. Nature of the assay: Antitubercular activity against multidrug resistant Mycobacterium tuberculosis isolate 1.
Assay [3] concerns Mycobacterium tuberculosis. As to the kind of experiment: Potency index, ratio of isoniazid MIC to compound MIC for multidrug resistant Mycobacterium tuberculosis isolate 2.
The subject of assay [4] is Mycobacterium tuberculosis. As to the kind of experiment: Potency index, ratio of rifampin MIC to compound MIC for multidrug resistant Mycobacterium tuberculosis isolate 1.
Assay [5] relates to Mycobacterium tuberculosis. Nature of the assay: Potency index, ratio of ciprofloxacin MIC to compound MIC for multidrug resistant Mycobacterium tuberculosis isolate 1.
Assay [6] relates to Mycobacterium tuberculosis. As to the kind of experiment: Potency index, ratio of rifampin MIC to compound MIC for multidrug resistant Mycobacterium tuberculosis isolate 2.
In assay [7] the test system is Mycobacterium tuberculosis. As to the kind of experiment: Potency index, ratio of ciprofloxacin MIC to compound MIC for multidrug resistant Mycobacterium tuberculosis isolate 2.
Assay [8] concerns Mycobacterium tuberculosis. Nature of the assay: Potency index, ratio of isoniazid MIC to compound MIC for multidrug resistant Mycobacterium tuberculosis isolate 1.

Turning to `CCOC(=O)c1c(-c2ccccc2)oc2ccc(OCCCN3C(=O)/C(=N\OC)c4cc(OC)ccc43)cc12`, the MIC amounted to 0.27 µg/mL (≈ 0.511 µM) in assay [1] and 0.21 µg/mL (≈ 0.397 µM) in assay [2].
On the same counts, the results for `CCOC(=O)c1c(-c2ccc(OC)cc2)oc2ccc(OCCCCCCN3C(=O)/C(=N\NC(N)=S)c4cc(F)ccc43)cc12` are 0.9 µg/mL (≈ 1.42 µM) and 0.95 µg/mL (≈ 1.5 µM).
Regarding `CCOC(=O)c1c(-c2ccc(OC)cc2)oc2ccc(OCCCN3C(=O)/C(=N\OC)c4cc(OC)ccc43)cc12`, the figures for the minimum inhibitory concentration (MIC) in assay [1] and in assay [2] were 0.29 µg/mL (≈ 0.519 µM) and 0.49 µg/mL (≈ 0.877 µM), respectively.
With `CCO/N=C1\C(=O)N(CCCCOc2ccc3oc(-c4ccc(OC)cc4)c(C(=O)OCC)c3c2)c2ccccc21`, the figures for the MIC in assay [1] and in assay [2] were 3.42 µg/mL (≈ 6.14 µM) and 3.23 µg/mL (≈ 5.8 µM), respectively.
On the same counts, the results for `CCOC(=O)c1c(-c2ccc(OC)cc2)oc2ccc(OCCCCCCN3C(=O)/C(=N\OC)c4cc(F)ccc43)cc12` are 3.56 µg/mL (≈ 6.05 µM) and 2.85 µg/mL (≈ 4.84 µM).
Taken in the same sequence, the figures for `NNC(=O)c1ccncc1` [ISONIAZID] were more than 40 µg/mL and more than 40 µg/mL.
Taken in the same sequence, the figures for `CNC(=O)c1c(-c2ccc(O)cc2)oc2ccc(O)c(CN3CCCCC3)c12` were less than 0.016 µg/mL and less than 0.016 µg/mL.
As for `CO[C@H]1/C=C/O[C@@]2(C)Oc3c(C)c(O)c4c(O)c(c(/C=N/N5CCN(C)CC5)c(O)c4c3C2=O)NC(=O)/C(C)=C\C=C\[C@H](C)[C@H](O)[C@@H](C)[C@@H](O)[C@@H](C)[C@H](OC(C)=O)[C@@H]1C` [RIFAMPIN], the MIC in assay [1] and in assay [2] was more than 40 µg/mL throughout.
With `CCOC(=O)c1c(-c2ccc(OC)cc2)oc2ccc(OCCCCN3C(=O)/C(=N\OC)c4ccccc43)cc12`, the MIC in assay [1] stood at 0.16 µg/mL (≈ 0.295 µM); in assay [2], 0.062 µg/mL (≈ 0.114 µM). Besides, the Ratio entry in assay [3], in assay [4], in assay [5], in assay [6], in assay [7] and in assay [8] was “>=48” each time.
In the case of `CCOC(=O)c1c(-c2ccc(OC)cc2)oc2ccc(OCCCCCCN3C(=O)/C(=N\OC)c4ccccc43)cc12`, the results for the MIC in assay [1] and in assay [2] were 1.87 µg/mL (≈ 3.28 µM) and 1.73 µg/mL (≈ 3.03 µM), respectively.
As to `CCO/N=C1\C(=O)N(CCCOc2ccc3oc(-c4ccc(OC)cc4)c(C(=O)OCC)c3c2)c2ccc(OC)cc21`, the values for the MIC in assay [1] and in assay [2] were 2.12 µg/mL (≈ 3.7 µM) and 2.24 µg/mL (≈ 3.91 µM), respectively.
Taken in the same sequence, the figures for `CCOC(=O)c1c(-c2ccc(OC)cc2)oc2ccc(OCCCCCCN3C(=O)/C(=N\NC(N)=S)c4ccccc43)cc12` were 0.48 µg/mL (≈ 0.781 µM) and 0.47 µg/mL (≈ 0.765 µM).
Taken in the same sequence, the figures for `CCOC(=O)c1c(-c2ccc(OC)cc2)oc2ccc(OCCCCCCN3C(=O)C(=O)c4cc(F)ccc43)cc12` were 12.9 µg/mL (≈ 23.1 µM) and 14.2 µg/mL (≈ 25.3 µM).
Consider `CCO/N=C1\C(=O)N(CCCCCCOc2ccc3oc(-c4ccc(OC)cc4)c(C(=O)OCC)c3c2)c2ccccc21`, for which the minimum inhibitory concentration (MIC) in assay [1] came out at 3.86 µg/mL (≈ 6.6 µM); in assay [2], 2.69 µg/mL (≈ 4.6 µM).
Taken in the same sequence, the figures for `O=C(O)c1cn(C2CC2)c2cc(N3CCNCC3)c(F)cc2c1=O` [CIPROFLOXACIN] were 0.27 µg/mL (≈ 0.815 µM) and 0.39 µg/mL (≈ 1.18 µM).
With `CCOC(=O)c1c(-c2ccc(OC)cc2)oc2ccc(OCCCN3C(=O)/C(=N\OC)c4ccccc43)cc12`, the minimum inhibitory concentration (MIC) in assay [1] was determined as 0.21 µg/mL (≈ 0.397 µM); in assay [2] it was 0.16 µg/mL (≈ 0.303 µM).
With `CCOC(=O)c1c(-c2ccc(OC)cc2)oc2ccc(OCCCCCN3C(=O)/C(=N\OC)c4cc(F)ccc43)cc12`, the MIC in assay [1] came out at 4.24 µg/mL (≈ 7.38 µM); in assay [2], 3.46 µg/mL (≈ 6.02 µM).
On the same counts, the results for `CCOC(=O)c1c(-c2ccccc2)oc2ccc(OCCCN3C(=O)/C(=N\OC)c4ccccc43)cc12` are 0.91 µg/mL (≈ 1.83 µM) and 0.94 µg/mL (≈ 1.89 µM).
Taken in the same sequence, the figures for `CCO/N=C1\C(=O)N(CCCOc2ccc3oc(-c4ccc(OC)cc4)c(C(=O)OCC)c3c2)c2ccccc21` were 5.88 µg/mL (≈ 10.8 µM) and 4.25 µg/mL (≈ 7.83 µM).
On the same counts, the results for `CCOC(=O)c1c(-c2ccc(F)cc2)oc2ccc(OCCCCCCN3C(=O)C(=O)c4cc(F)ccc43)cc12` are 2.98 µg/mL (≈ 5.44 µM) and 5.89 µg/mL (≈ 10.8 µM).

The term MIC denotes the least concentration at which growth counts as inhibited.
